Results: patent US7432269B2, “Arylpiperaszine derivatives, to the process for the production thereof and to the use thereof as therapeutic agents” (Bioprojet, priority 2004, dated 2008)
Counter-ions that a name gives are not always drawn.

Key:
[1] = biological target: T1, human D3 dopamine receptor (hD3) (Homo sapiens, UniProt P35462); assay: [3H]spiperone binding to human D3 dopamine receptor (transfected CHO cell membranes); settings: CHO cells transfected with hD3
T1 construct: expressed in transfected cells; host or cells: CHO cells
Procedure: CHO cells were transfected with the gene coding for the human D3 dopamine receptor (hD3). [^3H]spiperone binding (0.5 to 2 nM) is performed in the presence of 5 to 10 μg of membrane proteins in a medium containing 120 mM of NaCl, 5 mM of KCl, and 50 mM of Tris-HCl pH 7.4; incubation of 60 minutes at ambient temperature is necessary. Non-specific binding is estimated in the presence of 5 μM of haloperidol. Non-transfected cells have absolutely no binding activity.

[2] = test system: human alpha-1 adrenergic receptor (hα1); assay: [3H]prasozin binding to human alpha-1 adrenergic receptor (transfected HEK 293 cell membranes); settings: HEK 293 cells transfected with hα1
Procedure: HEK 293 cells were transfected with the gene coding for the human alpha-1 adrenergic receptor (hα1). [3H]prasozin binding (0.02 to 2 nM) is performed in the presence of 5 to 10 μg of membrane proteins in a medium containing 0.5 mM of EDTA and 50 mM of Tris-HCl pH 7.4; incubation of 60 minutes at ambient temperature is necessary. Non-specific binding is estimated in the presence of 10 μM of phentolamine. Non-transfected cells have absolutely no binding activity.

T1 sequence (P35462 whole entry): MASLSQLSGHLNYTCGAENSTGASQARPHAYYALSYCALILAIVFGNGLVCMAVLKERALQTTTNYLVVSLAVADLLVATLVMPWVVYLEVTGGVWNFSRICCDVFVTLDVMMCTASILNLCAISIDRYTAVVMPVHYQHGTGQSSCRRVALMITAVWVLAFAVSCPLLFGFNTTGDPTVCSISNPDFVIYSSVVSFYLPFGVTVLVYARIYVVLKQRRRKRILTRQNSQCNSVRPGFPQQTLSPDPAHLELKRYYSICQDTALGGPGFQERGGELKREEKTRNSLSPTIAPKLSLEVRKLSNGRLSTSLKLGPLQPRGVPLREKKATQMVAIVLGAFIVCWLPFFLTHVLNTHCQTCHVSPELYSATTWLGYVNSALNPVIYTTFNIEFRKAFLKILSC

FC(F)(F)c1cccc(N2CCN(CCCCNc3cc(-c4ccccc4)ccn3)CC2)c1 [Example 4, 2-{4-[4-(3-trifluoromethyl-phenyl)piperazin-1-yl]butyl}amino-4-phenylpyridine dihydrochloride]
Ki [1]: 0.76 nM | Ki [2]: 162 nM

Clc1cccc(N2CCN(CCCCNc3cc(-c4ccccc4)ccn3)CC2)c1Cl [Example 6, 2-{4-[4-(2,3-dichlorophenyl)piperazin-1-yl]butyl}amino-4-phenylpyridine]
Ki [1]: 0.55 nM | Ki [2]: 136 nM
